Patent US7045298B2, “Method for identifying or screening agonist and antagonist to PPAR” (Tanabe Seiyaku Co., Ltd., priority 1997, dated 2006)

Key:
[1] = biological target: T1, ligand-dependent interaction between PPARγ and CBP (Homo sapiens, UniProt P37231); experiment: Yeast two-hybrid detection of ligand-dependent interaction between PPARγ and CBP (β-galactosidase reporter); format: cell-based; conditions: for β-galactosidase activity (lacZ gene expression): yeast SFY526 containing both plasmids pGBT9-PPARγ2 and pGAD424-CBP, substance added at 10^−6M (FIG. 2A/3A), cultivation 4 to 5 hours; for concentration dependence of the increase in β-galactosidase activity: yeast containing both plasmids, varying concentrations of substance (FIG. 2B/3B)
T1 construct: expressed in transfected cells; host or cells: yeast cell strain SFY526 (Clontech), transformed with pGBT9-PPARγ2 and pGAD424-CBP
T1 sequence (P37231 182-505): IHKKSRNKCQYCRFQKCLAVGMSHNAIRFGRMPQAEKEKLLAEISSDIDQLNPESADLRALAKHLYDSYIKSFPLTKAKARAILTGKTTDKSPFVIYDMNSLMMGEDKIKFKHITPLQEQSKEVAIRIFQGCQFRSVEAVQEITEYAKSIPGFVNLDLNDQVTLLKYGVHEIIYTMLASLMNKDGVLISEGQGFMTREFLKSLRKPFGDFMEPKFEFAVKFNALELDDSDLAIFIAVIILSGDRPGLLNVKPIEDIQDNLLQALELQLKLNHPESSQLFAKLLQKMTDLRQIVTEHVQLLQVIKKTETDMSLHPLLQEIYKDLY
T1 sequence (P45481 1-464 partner): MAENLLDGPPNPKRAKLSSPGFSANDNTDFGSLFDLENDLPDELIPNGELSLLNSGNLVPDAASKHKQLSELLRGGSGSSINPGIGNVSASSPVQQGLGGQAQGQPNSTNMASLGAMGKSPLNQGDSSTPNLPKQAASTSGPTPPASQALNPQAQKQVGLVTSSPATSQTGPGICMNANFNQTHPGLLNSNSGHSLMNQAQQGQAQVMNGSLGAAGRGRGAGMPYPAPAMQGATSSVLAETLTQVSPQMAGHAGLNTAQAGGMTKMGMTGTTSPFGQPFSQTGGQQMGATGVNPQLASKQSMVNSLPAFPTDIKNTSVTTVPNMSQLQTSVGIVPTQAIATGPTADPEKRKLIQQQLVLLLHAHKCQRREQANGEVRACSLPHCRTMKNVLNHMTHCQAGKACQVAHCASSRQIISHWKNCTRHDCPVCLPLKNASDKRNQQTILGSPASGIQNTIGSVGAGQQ
Source text: The 1574 base pair fragment containing PPARγ2 gene obtained in (1) above was cleaved at the XhoI recognition site designed at the terminus and the BamHI recognition site in the base sequence. The fragments obtained were inserted into the BamHI-SalI site of yeast expression vector pGBT9 (available from Clontech Co., vector for yeast two hybrid system) containing the gene of the DNA binding domain of transcription factor GAL4 (No. 1 to 147 amino acid residues of GAL4). As a result, plasmid pGBT9-PPARγ2 (FIG. 1A) for expressing a fused protein comprising the portion downstream of the No. 181 amino acid residue of human PPARγ2 (ligand binding domain) and the DNA binding domain of GAL4 was obtained. In FIG. 1A, GAL4 bd stands for a GAL4 DNA binding domain sequence, ^PADH1 stands for alcohol dehydrogenase gene promoter, ^TADH1 stands for an alcohol dehydrogenase gene terminator, Amp^r stands for an ampicillin resistant gene, ColE1 ori stands for a collicin E1 replication start point, and 2 μ ori stands for a 2 μ replication start point.
The 1411 base pair fragment containing CBP gene obtained in (1) above (N-terminal domain) was cleaved at the BamHI recognition site and BglII recognition site designed at the termini. The fragments obtained were inserted into the BamHI-BglII site of yeast expression vector pGAD424 (available from Clontech Co., vector for yeast two hybrid system) containing the gene of the transcriptional activation domain of GAL4 (No. 768 to 881 amino acid residues of GAL4). As a result, plasmid pGAD424-CBP (FIG. 1B) for expressing a fused protein comprising the portion of the No. 1 to 464 amino acid residues of mouse CBP (N-terminal domain) and the transcriptional activation domain of GAL4 was obtained. In FIG. 1B, GAL4 ad stands for GAL4 transcriptional activation domain sequence and others have the same meanings as in FIG. 1A.
Using yeast cell strain SFY526 (available from Clontech Co.), the fused protein expression plasmids pGBT9-PPARγ2 and pGAD424-CBP obtained in (2) and (3) above were introduced therein. The cell strain SFY526 (genotype was MATa, ura3-52, his3-200, ade2-101, lys2-801, trp1-901, leu2-3, 112, canr, gal4-542, gal80-538, URA3::GAL1-lacZ) had incorporated in the chromosome a fused gene of GAL1 and lacZ and is a cell strain having deletion mutation relative to GAL4 gene (Bartel et al., Bio Techniques, vol. 14, pp. 920–924, 1993). The transformation was performed by the lithium acetate method and incubated in a synthetic medium depleted of tryptophan and leucine which are selection markers for the respective plasmids to perform screening to obtain a transformant in which only one of the plasmids was introduced and a transformant in which the both plasmids were introduced.
The yeast transformant containing both of the plasmids pGBT9-PPARγ and pGAD424-CBP or the yeast transformant containing only one of the plasmids was cultivated in YPD medium (liquid medium). Upon cultivation, 15-deoxy-Δ^12,14-prostaglandin J2, which is a ligand of PPARγ2 in a living body, diluted with YPD medium was added (or not added). 15-deoxy-Δ^12,14-prostaglandin J2 (hereinafter abbreviated to as “15d-PGJ2”) used was commercially available (available from CAYMAN CHEMICALS, CO., U.S.A.). The cultivation was performed for 4 to 5 hours. After the cultivation, the yeast cells were recovered by centrifugation and β-galactosidase activity was measured. […]

KK-Ay mouse = conditions: Japanese Provisional Patent Publications No. 56675/1989 and No. 167225/1990; cited from earlier work

Row | Compound | β-galactosidase activity (lacZ gene expression) [1] | concentration dependence of the increase in β-galactosidase activity [1] | identification as agonist for PPARγ ([1]; conclusion from ligand-dependent PPARγ-CBP interaction in yeast two-hybrid system) | hypoglycemic effect (KK-Ay mouse)
1 | CCCCC/C=C/C=C1/C(=O)C=C[C@@H]1C/C=C\CCCC(=O)O [15d-PGJ2, 15-deoxy-Δ^12,14-prostaglandin J2] | an increase in β-galactosidase activity | dependent on the concentration of 15d-PGJ2 | – | –
2 | O=C1NC(=O)C(Cc2ccc3oc(Cc4ccc5ccccc5c4)nc3c2)S1 (stereo not drawn) [T-174, 5-[[2-(2-naphthalenylmethyl)-5-benzoxazolyl]methyl]-2,4-thiazolidinedione] | an increase in β-galactosidase activity was observed only in the yeast containing both of the plasmids | dependent on the concentration of T-174 | identified as an agonist acting as a ligand to PPARγ | hypoglycemic effect
